We go through 88 molecules from a melting point compilation (Tetko et al.; mined from patent text by program, amines drawn as free bases though some values may be those of a salt).

Structures are written as SMILES. Where only a bound is given, the exact number is not on record here.

`Cc1nc(-c2ccc3c(=O)n(CC(C)C)c(CNC(=O)OC(C)(C)C)c(-c4ccccc4)c3c2)sc1C(=O)O`: the melting point is 184 to 186 °C.
For `COC(=O)CCCCC(O)c1ccc(CCc2ccccc2)cc1` (stereo not drawn) the value was 56 to 58 °C; for `COc1ccc(C)cc1NC(=O)Nc1ccc(N2CCN(C(=O)Nc3ncccc3C(=O)O)CC2)cc1`, 165 to 168 °C.
Next, `COc1ccc(C(=O)c2noc(CC#N)n2)cc1`: 92 to 94 °C; `CCOC(=O)c1cn(-c2cc(NC(=O)OC(C)(C)C)c(F)cc2F)c2cc(F)c(C)cc2c1=O`: 205 to 207 °C.
For `O=C=NCc1cccnc1`, the melting point was 141 to 146 °C.
Next, `O=C1Cc2cc3cc(OCCCC(=O)N4CCN(CC5CCCCC5)CC4)ccc3nc2N1`: 212 °C.
For `CCOC(=O)c1cn(C2CC2)c2c(C#N)c(Cl)c(F)cc2c1=O` the value was 162 to 165 °C; for `O[C@@H]1CNC[C@H]1Sc1ccccc1` (relative stereo), 140 to 141 °C; for `COc1cc(NC(=O)Nc2ccc(Oc3ccncc3)cc2)cc(C(F)(F)F)c1`, 162 to 164 °C.
As to `Cc1c(C#N)sc2nc(-c3ccc(Cl)cc3)nc(N3CCN(C)CC3)c12`, the melting point is 209 to 210 °C.
Next, `CCCC(=O)c1cc2nc(C(=O)OCC)n(C)c2cc1C`: 106 to 108 °C; `CN1CCN(C2(CN(C)C(=O)c3ccc(Cl)c(Cl)c3)CCCCC2)CC1`: 126 to 129 °C; `O=C(c1ccccc1)c1cc2ccnc(N(Cc3ccccc3)Cc3ccccc3)c2[nH]1`: 122 to 124 °C.
Next, `CCOC(=O)C1CCN(C(=O)CCCOc2ccc3nc4[nH]c(=O)[nH]c4cc3c2)CC1`: 251 to 253 °C; `CCN(C(C)=O)c1cccc(-c2ccnc3c([N+](=O)[O-])cnn23)c1`: 176 to 178 °C.
Regarding `Fc1ccc2[nH]cc(CCCCN3CCN(c4cccc(Cl)c4Cl)CC3)c2c1`, the melting point was in the range of 147 to 148 °C.
Next, `CC(=O)Oc1c(C)ccc2c1N=CC1CCCN1C2=O` (stereo not drawn): 142 to 145 °C; `C=C(F)c1c[nH]c(=O)[nH]c1=O`: 235 to 238 °C; `O=c1ccc(-c2ccncn2)c[nH]1`: above 250 °C.
For the molecule `C=CCOc1ccc(C=NO)c(O)c1`, the melting point was 74 to 76 °C.
Next, `O=C(O)c1nc2cc(-n3ccnc3)c([N+](=O)[O-])cc2[nH]c1=O`: above 300 °C; `O=C1c2cccc3c4c(cc(c23)C(=O)N1O)COCO4`: 314 to 315 °C.
Next, `O=C(NO)c1ccc(CNC(=O)c2[nH]c(-c3ccccc3)cc2-c2ccc(O)cc2)cc1`: 139 to 141 °C.
Take `COc1ccc(C)cc1-c1ccc(S(=O)(=O)N2c3ccccc3CC2C(=O)NCCOc2ccc(CC(=O)O)cc2)cc1` (stereo not drawn): the melting point was in the range of 85 to 88 °C.
For `CSc1ccc(C(N)=O)c([N+](=O)[O-])c1` the value was 176 to 178 °C.
For `COc1cccc(C(CNC(=O)Cc2c(Cl)cncc2Cl)CC(C)C)c1` (stereo not drawn) the value was 98 to 99 °C; for `CCOC(=O)CNC(=O)c1cn2nc(Cl)ccc2n1`, 190 to 191 °C.
For `Cc1cc(Oc2cccc(C(F)(F)F)c2)c(C)cc1N=CNC#N` the value was 138 to 140 °C.
`COc1ccc(CNn2c(=O)ccc3ccc(N4CCC[C@H]4CO)nc32)cc1Cl` yielded a melting point of 131 to 134 °C.
As to `O=C(Nc1ccc(Cl)cc1)c1ccccc1F`, the melting point lay in the range of 94.5 to 96.2 °C.
Next, `COc1ccc(S(=O)(=O)C(CC(=O)NO)c2ccccc2)cc1` (stereo not drawn): 157 to 159 °C.
Next, `c1ccc2c(c1)Cn1ccnc1CN2`: 164 to 170 °C; `COc1ccc(C2=NC(C)(C)CO2)cc1N`: 108 to 110 °C; `Cc1ccccc1C(=O)Nc1ccc(C(=O)N2Cc3ccccc3Sc3ccccc32)cc1`: 145 to 148 °C.
With `Cn1nc(-c2c(F)cccc2F)nc1-c1ccc(OCc2ccc(C(F)(F)F)cc2)c(Cl)c1`, the melting point lay in the range of 171 to 177 °C.
For the molecule `NS(=O)(=O)c1cccc2ccccc12`, the melting point fell in the range of 152 to 153 °C.
`CC(=O)Nc1ccc(-c2c(Cl)c(CCl)nc3sc4c(c23)CCN(Cc2ccccc2)C4)cc1` showed a melting point of 203 to 204 °C.
On to `NC(=O)[C@H]1CCCN1C(c1ccccc1)(c1ccccc1)c1ccccc1`, for which the melting point worked out at 162 °C.
For `O=C(c1c(F)cccc1F)N1COCN(c2ccc(S(=O)(=O)C(F)F)cc2F)C1=O` the value was 210 to 213 °C; for `Cc1nc2ccccc2c(=O)n1CCCOS(C)(=O)=O`, 148 to 150 °C; for `CC(C)Oc1cccc(C(CC(=O)O)NS(=O)(=O)c2ccc3ccccc3c2)c1` (stereo not drawn), 126 °C.
Next, `Cn1nc(-c2ccc(OC(F)(F)F)cc2)cc1CBr`: 70 to 71 °C; `O=C1N=c2cccc(OCCN3CCC(Cc4ccccc4)CC3)c2=N1`: 153 to 154 °C; `OC(c1cc(Cl)cc(Cl)c1)C(F)(F)C(F)(F)F` (stereo not drawn): 71 to 73 °C.
Next, `O=[N+]([O-])c1cccc(-n2ccnc2)c1`: 101 to 102 °C.
The molecule `CC(C)(C)OC(=O)N1CCC(c2c(F)cc(N3C[C@H](COS(C)(=O)=O)OC3=O)cc2F)CC1` showed a melting point of 125 to 126 °C.
In turn, `Cn1cncc1CC(=O)c1ccc(Br)cc1` displayed a melting point of 109 °C.
As for `COC(=O)C(=O)NS(=O)(=O)Cc1ccccc1`, the melting point was in the range of 117 to 122 °C.
For `CC(C)(C)c1ccc(/C=C/C(=O)Nc2ccc3c(c2)CCCC3)cc1`, the melting point lay in the range of 198 to 199 °C.
For `CCOC(=O)Nn1cccc1C(=O)c1ccccc1Cl` the value was 90 to 92 °C; for `CC(C)(C)c1cc(CCC(=O)NCCOC(=O)CCc2cc(C(C)(C)C)c(O)c(C(C)(C)C)c2)cc(C(C)(C)C)c1O`, 151 to 154 °C; for `Oc1ccc2c(CCC3CCN(Cc4ccccc4)CC3)noc2c1`, 148 to 149 °C.
In the case of `CCCCOC(=O)C=C(C)C=CC=C(C)C=Cc1c(C)cc(OC)c(C)c1C`, the melting point lay in the range of 80 to 81 °C.
In the case of `CCCc1ccnc(C(=O)OCC)c1N`, the melting point fell in the range of 93 to 96 °C.
Next, `COc1cc2ccc3c4cc(OC)c(OC)cc4nc(C)c3c2cc1OC`: 255 to 257 °C; `Cc1nc2c(NC(=O)C(C)(C)C)cccn2c1Cl`: 117 to 118 °C; `O=[N+]([O-])c1cc2nccnc2cc1Sc1cccc2cnccc12`: 222 to 225 °C.
Next, `CC(c1cccnc1)n1c(=O)[nH]c2cc(Cl)ccc21` (stereo not drawn): 190 °C.
For `CCCn1nc(Cc2ccc(-c3ccccc3S(=O)(=O)NC(=O)c3ccccc3)cc2)c(C(=O)O)c1Cc1ccccc1` the value was 105 to 109 °C; for `O=C1c2ccccc2C(=O)N1OCCCC#Cc1ccc(F)cc1`, 85 to 88 °C.
Molecule `Cn1ncnc1COc1nn2c(-c3ccco3)nncc2c1-c1ccccc1F` yielded a melting point of 204 to 206 °C.
Next, `CON=C(C(=O)OC)c1ccccc1COc1ccc(C(C)=NOCc2ccccc2)cc1`: 104 to 106 °C; `CC(C)(C)OC(=O)COCCC1CCN(c2cnc(-c3ccccc3)c(-c3ccccc3)n2)CC1`: 104 to 106 °C.
For `CC(=O)Nc1ccc(OCCCCCO[N+](=O)[O-])cc1` the value was 96 to 98 °C; for `Cc1cccc(C2(Cn3cncn3)CC(COc3ccccc3[N+](=O)[O-])ON2C)c1` (stereo not drawn), 149 to 152 °C; for `COC(=O)c1ccc(-c2nnc(-c3cccc(NS(=O)(=O)c4ccc(C)cc4)c3)o2)cc1`, 227 to 228 °C.
For `CCOc1cc2c(Nc3cc(OC)c(Cl)cc3Cl)c(C#N)cnc2cc1NC(C)=O` the value was 245 to 248 °C; for `O=C(Nc1ccc(CN2CCCCC2)cc1)C(Br)C(Br)c1ccc(-c2ccc(Cl)cc2)cc1` (stereo not drawn), 145 to 150 °C.
Take `O=C1CCC(N2C(=O)c3cccc(CNC(=O)c4ccccc4)c3C2=O)C(=O)N1` (stereo not drawn): the melting point was in the range of 227 to 229 °C.
Molecule `Cc1ccc(C(=O)c2ccc(CC#N)n2C)s1` returned a melting point of 118 to 121 °C.
Next, `CC(=O)Oc1c(C)cc(C=CC(=O)Nc2cnc3c(C)cc(C)cc3c2-c2ccccc2Cl)c(C)c1C`: 233 to 234 °C.
Next, `CCC(=O)Nc1csc(Br)n1`: 122 to 125 °C.
Next, `CC(C)NCC(O)COC1c2ccccc2C(=O)N1c1cccc(Cl)c1` (stereo not drawn): 128 °C; `CCC(C)C(NC(=O)OCc1ccccc1)C(=O)NC(C(=O)Nc1n[nH]c(=S)s1)C(C)C` (stereo not drawn): 197 to 198 °C; `COCOc1ccc(C2(c3cccc(-c4cccnc4F)c3)N=C(N)N3CCCN=C32)cc1` (stereo not drawn): 95 to 105 °C.
Consider `COC1(c2cc(OCc3ccc4c(ccc(=O)n4C)c3)cc(C(F)(F)F)c2)CCOCC1`, for which the melting point worked out at 103 °C.
Next, `CCCCCCCCCCCCCCCCCCSCCCCCCCCCCC(N)=O`: 108 °C; `COc1ccc(CCl)cc1OCc1nc(-c2ccccc2)oc1C`: 129 to 130 °C.
Next, `Cc1ccc(S(=O)(=O)OC2CC3(C)C=CC(C)(C2)O3)cc1` (stereo not drawn): 75 to 77 °C; `O=c1c(-c2ccccc2)c(CSc2ncnc3[nH]cnc23)oc2ccccc12`: 208 to 209 °C; `CSCC(C)(C)NC(=O)c1c(NC(=O)c2cc(C(F)(F)F)nn2-c2ncccc2Cl)c(Cl)cc2cn[nH]c12`: 100 to 105 °C.
For `CCn1cc(C(=O)O)c(=O)cc1-c1ccc(N(C)C)c(C)c1` the value was 160 to 162 °C.
Regarding `COc1ccc(N2CCc3c(C)nc4ccccc4c32)c(C)c1`, the melting point was in the range of 115 to 117 °C.
Next, `CCN1CC2(CCN(Cc3ccccc3)CC2)OC1=O`: 105 to 106 °C; `CCC(C)(C)c1cccc(NC=O)c1C`: 51 to 53 °C.
Next, `Cc1noc(NS(=O)(=O)c2ccccc2-c2ccc(-c3ncco3)cc2/C=C/c2ccccc2)c1C`: 102 to 109 °C; `COCCn1c(SC)nc(-c2ccc(F)cc2)c1-c1ccnc(Nc2ccccc2)c1`: 108 °C.
